Activity calls are given as the source filed them. How the calls were made is not given here.
System: S. cerevisiae expressing PfHSP40, growth rescue, plate reader
Assay: S cerevisiae expressing PfHSP40, growth rescue, cherry pick dose confirmatory, plate reader (AID 540271);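 further: yeast growth read after three days of incubation at 30 °C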

CCCOc1ccc(N2C(=O)CC(N3CCC(C(=O)OCC)CC3)C2=O)cc1 (stereo unspecified)
AC50: 6.34 µM

CCCNC(=O)c1ccc2c(=O)c(O)c(-c3ccc(F)cc3)[nH]c2c1
AC50: 6.08 µM

Cc1nc2c(o1)C(=O)c1ccccc1C2=Nc1ccccc1
AC50: 5.02 µM

CCOc1ccc(-n2c(O)c(/C=N/NC(=O)C3COc4ccccc4O3)c3ccccc3c2=O)cc1 (stereo unspecified)
AC50: 4.11 µM

CC(=O)Nc1cccc(NC(=O)CSc2ccc(-c3ccccn3)nn2)c1
AC50: 3.64 µM

O=c1c(Cl)c(Cl)cnn1Cc1nnc(-c2ccc(Cl)cc2)o1
AC50: 7.45 µM

COc1ccc(-c2sc3ccccc3c2C#Cc2cncn2C)cc1
AC50: 6.77 µM

Cc1n[nH]c(C)c1N=Nc1ccc(Br)cc1
AC50: 6.88 µM

O=c1c2ccccc2nc(-c2cccc(Cl)c2)n1O
AC50: 3.21 µM

CCc1sc(C(=O)Nc2nc(-c3ccccn3)cs2)cc1C
AC50: 1.82 µM

CCOC(=O)c1cnc(-n2nc(C)cc2C)nc1NC1CCCC1
AC50: 7.65 µM

Clc1ccc(-c2n[nH]c3c2CCC3)cc1Cl
AC50: 5.64 µM

CC(C)(C)C(=O)C(Cl)C(=O)Nc1ccccc1 (stereo unspecified)
AC50: 5.65 µM

O=[N+]([O-])c1cccc(-c2cc(-c3cc(Br)ccc3O)[nH]n2)c1
AC50: 5.44 µM

Cc1cc(/C=N/n2cnnc2)c(C)n1-c1ccc(OCc2ccc(F)cc2)cc1
AC50: 4.69 µM

CN(C)c1nc(SCc2ccc(Cl)cc2)nc2c1CCCC2
AC50: 5.58 µM

CCCCC(=O)NC(=S)NNC(=O)CCc1ccccc1
AC50: 5.21 µM

Cc1ccc([C@@H]2CC=C(C(=O)O)[C@H](c3ccc(Br)cc3)N2S(=O)(=O)c2ccccc2C)cc1
AC50: 5.21 µM

CCCCNc1c(-c2cccc(Sc3ccc(OC)cc3)c2)nc2ccccn12
AC50: 8.12 µM

O=[N+]([O-])c1ccc2c(OCc3nnc(-c4ccccc4Br)o3)ncnc2c1
AC50: 6.17 µM

COC(=O)/C=C\C(=O)Nc1cccc([N+](=O)[O-])c1
AC50: 1.83 µM

Cc1nc2ccc(NC(=O)Cc3ccc4c(c3)OCCO4)cc2s1
AC50: 4.83 µM

COc1cnc(-c2ccccn2)nc1Sc1ccc(C)cc1
AC50: 5.97 µM

CCCCCCCCCCOC(=O)Cn1c(COc2ccccc2OC)[n+](C)c2ccccc21
AC50: 6.39 µM

CCc1ccc(C(C)NC(=S)NC2CCCCC2)cc1 (stereo unspecified)
AC50: 7.1 µM

CC1Oc2ccccc2C=C1/C=N/Nc1ccc(C(=O)O)cc1 (stereo unspecified)
AC50: 10.1 µM

O=C(Nc1ccc(Br)c(C(F)(F)F)c1)c1ccccc1
AC50: 4.78 µM

Clc1ccc(CSC(Cn2ccnc2)c2ccc(Cl)cc2Cl)cc1 (stereo unspecified)
AC50: 0.25 µM

COc1cc(NC(=O)CSc2ccc(-c3ccccn3)nn2)cc(OC)c1
AC50: 1.59 µM

Cc1cccc(C)c1NS(=O)(=O)c1ccc(-c2cnc(C3CC3)o2)cc1
AC50: 6.06 µM

CNc1ccc2oc(C[C@H]3O[C@@]4(CC[C@H]3C)O[C@H]([C@H](C)C(=O)c3ccc[nH]3)[C@H](C)C[C@H]4C)nc2c1C(=O)O
AC50: 0.662 µM

CC(=O)Nc1cccc(-c2cc(-c3c(Cl)cccc3Cl)no2)c1
AC50: 3.12 µM

CCOC(=O)N1C(=O)C2(CCCCC2)N(c2ccccc2Cl)C1=S
AC50: 0.084 µM

CCOC(=O)N1CCN(S(=O)(=O)c2ccc(C(=O)NNc3nc4ccc(Cl)cc4s3)cc2)CC1
AC50: 5.51 µM

CC(=O)Nc1ccc2c(c1)Cc1cc(N3C(=O)C=CC3=O)ccc1-2
AC50: 0.526 µM

CCc1oc2ccccc2c1C(=O)c1cc(Br)c(O)c(Br)c1
AC50: 3.28 µM

Oc1c(CN2CCCC2)cc(COCc2ccccc2)c2cccnc12
AC50: 5.55 µM

O=C(Nc1cc(Oc2ccc(Cl)cc2)cc([N+](=O)[O-])c1)c1ccco1
AC50: > 12 µM (inactive)

Nc1cc2c3ccccc3ccc2c2ccccc12
AC50: 2.13 µM

O=C(CN1CC[n+]2c(-c3cccs3)csc21)c1ccc(-c2ccccc2)cc1
AC50: 7.25 µM

CN(C)c1ccc(C=c2c3ccccc3n3c2c2c([n+]3C)CCCC2)cc1
AC50: 2.64 µM

CC1(C)C2CCC1(C)C(OC(=O)c1ccc(O)cc1)C2 (stereo unspecified)
AC50: 4.38 µM

Cc1cc(C(=O)N/N=C/c2cc(Br)cc([N+](=O)[O-])c2O)c2ccccc2n1
AC50: 3.37 µM

Cc1ccc(-n2nnnc2SCC(=O)N2CCc3ccccc3C2)c(C)c1
AC50: 5.8 µM

CC(=O)Oc1ccc(OC(C)=O)c(SCCCCCCl)c1
AC50: 7.6 µM

S=C(NCCCc1ccccc1)Nc1ccccc1Cl
AC50: 9.44 µM

— PubChem BioAssay AID540271 (Broad Institute, 2011)
